In patent publication US20170233413A1, “SUBSTITUTED ANNULATED PYRIMIDINES AND USE THEREOF” (Bayer Pharma Aktiengesellschaft, priority 2014, published 2017):

Assays:
[1] = biological target: T1, human phosphodiesterase 5 (PDE 5) (Homo sapiens, UniProt O76074); test: Inhibition of human phosphodiesterase 5 (PDE 5); type: biochemical; settings: PDE 5 preparation from human platelets; in some cases means of individual determinations
T1 construct: PDE 5 preparations are obtained from human platelets by disruption; from tissue; host or cells: human platelets
Summary of the method: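 Enzyme partially purified from human platelets by Mono Q ion exchange, diluted so that under 70% of substrate converts. [8-3H]cGMP at 0.025 μCi per well in Tris pH 7.5 with MgCl2/EDTA, 60 min at room temperature, yttrium SPA bead read-out. Final compound concentrations 4–0.0018 μM; IC50 from concentration–inhibition plot.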

[2] = biological target: T2, recombinant guanylate cyclase reporter cell line (Rattus norvegicus, UniProt P19686+P20595); test: Effect on a recombinant guanylate cyclase reporter cell line; type: cell-based; settings: MEC = minimum effective concentration; in some cases means of individual determinations
T2 construct: expressed in transfected cells
T2 sequence (P19686 1-690): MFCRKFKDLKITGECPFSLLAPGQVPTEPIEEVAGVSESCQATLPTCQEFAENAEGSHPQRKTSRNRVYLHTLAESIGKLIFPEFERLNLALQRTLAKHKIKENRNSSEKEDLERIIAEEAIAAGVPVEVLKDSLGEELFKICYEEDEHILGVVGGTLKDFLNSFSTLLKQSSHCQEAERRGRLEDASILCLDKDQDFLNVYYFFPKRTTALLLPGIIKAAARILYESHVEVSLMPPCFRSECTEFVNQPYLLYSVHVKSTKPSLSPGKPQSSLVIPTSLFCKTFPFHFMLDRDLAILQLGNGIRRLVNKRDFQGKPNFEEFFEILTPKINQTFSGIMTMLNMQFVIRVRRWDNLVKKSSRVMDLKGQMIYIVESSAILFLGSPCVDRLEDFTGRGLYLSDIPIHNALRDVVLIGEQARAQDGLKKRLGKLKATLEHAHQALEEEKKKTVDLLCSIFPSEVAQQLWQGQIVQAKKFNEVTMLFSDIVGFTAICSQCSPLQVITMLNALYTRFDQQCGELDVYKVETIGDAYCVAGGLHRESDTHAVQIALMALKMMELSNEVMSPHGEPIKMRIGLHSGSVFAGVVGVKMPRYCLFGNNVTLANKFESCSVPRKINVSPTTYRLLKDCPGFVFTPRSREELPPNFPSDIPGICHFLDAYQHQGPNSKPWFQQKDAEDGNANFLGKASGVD
T2 sequence (P20595 1-619): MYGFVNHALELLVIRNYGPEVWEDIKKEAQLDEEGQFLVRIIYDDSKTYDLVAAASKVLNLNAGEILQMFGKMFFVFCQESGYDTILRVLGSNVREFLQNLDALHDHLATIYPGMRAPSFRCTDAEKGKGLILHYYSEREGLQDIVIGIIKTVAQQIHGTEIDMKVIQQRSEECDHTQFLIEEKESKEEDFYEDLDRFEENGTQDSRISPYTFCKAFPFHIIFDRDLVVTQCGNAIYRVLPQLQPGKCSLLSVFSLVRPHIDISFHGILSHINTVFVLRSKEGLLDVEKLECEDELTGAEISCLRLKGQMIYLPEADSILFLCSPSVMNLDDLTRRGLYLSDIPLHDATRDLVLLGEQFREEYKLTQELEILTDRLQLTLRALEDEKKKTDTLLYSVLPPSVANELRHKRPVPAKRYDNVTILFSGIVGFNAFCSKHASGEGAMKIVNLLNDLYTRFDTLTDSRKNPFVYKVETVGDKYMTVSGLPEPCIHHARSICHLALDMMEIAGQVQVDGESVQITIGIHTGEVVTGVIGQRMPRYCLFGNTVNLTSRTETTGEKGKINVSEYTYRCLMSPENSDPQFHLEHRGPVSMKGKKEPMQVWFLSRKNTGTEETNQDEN
Summary of the method: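 Cellular activity measured in a recombinant rat soluble guanylate cyclase reporter cell line. Values are minimum effective concentration (MEC), some given as means of individual determinations.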

Compound	IC50 [1] [nM]	MEC [2] [µM]
CC1(C)C(=O)Nc2nc(-c3nn(Cc4ccccc4F)c4ncccc34)nc(C(=O)Nc3cc(F)c(F)c(F)c3)c21 [Example 77, 2-[1-(2-fluorobenzyl)-1H-pyrazolo[3,4-b]pyridin-3-yl]-5,5-dimethyl-6-oxo-N-(3,4,5-trifluorophenyl)-6,7-dihydro-5H-pyrrolo[2,3-d]pyrimidine-4-carboxamide]	87	1
Cc1nc2c(cc1F)c(-c1nc3c(c(C(N)=O)n1)C(C)(C(F)(F)F)C(=O)N3)nn2Cc1c(F)ccc(F)c1F (single isomer, unassigned; ent-2) [Example 16, ent-2-[5-Fluoro-6-methyl-1-(2,3,6-trifluorobenzyl)-1H-pyrazolo[3,4-b]pyridin-3-yl]-5-methyl-6-oxo-5-(trifluoromethyl)-6,7-dihydro-5H-pyrrolo[2,3-d]pyrimidine-4-carboxamide (enantiomer A)]	170	0.17
Cc1nc2c(cc1F)c(-c1nc3c(c(C(N)=O)n1)C(C)(C(F)(F)F)C(=O)N3)nn2Cc1ccccc1F (single isomer, unassigned; ent-2) [Example 14, ent-2-[5-fluoro-1-(2-fluorobenzyl)-6-methyl-1H-pyrazolo[3,4-b]pyridin-3-yl]-5-methyl-6-oxo-5-(trifluoromethyl)-6,7-dihydro-5H-pyrrolo[2,3-d]pyrimidine-4-carboxamide (enantiomer B)]	130	0.03
Cc1nc2c(cc1F)c(-c1nc3c(c(C(N)=O)n1)C(C)(C(F)(F)F)C(=O)N3)nn2Cc1c(F)ccc(F)c1F (racemic) [Example 15, rac-2-[5-fluoro-6-methyl-1-(2,3,6-trifluorobenzyl)-1H-pyrazolo[3,4-b]pyridin-3-yl]-5-methyl-6-oxo-5-(trifluoromethyl)-6,7-dihydro-5H-pyrrolo[2,3-d]pyrimidine-4-carboxamide]	1200	0.2
CC1(C)C(=O)Nc2nc(-c3nn(Cc4ccccc4F)c4ncccc34)nc(C(=O)Nc3nncs3)c21 [Example 93, 2-[1-(2-fluorobenzyl)-1H-pyrazolo[3,4-b]pyridin-3-yl]-5,5-dimethyl-6-oxo-N-(1,3,4-thiadiazol-2-yl)-6,7-dihydro-5H-pyrrolo[2,3-d]pyrimidine-4-carboxamide]	55	0.1
CC1(C)C(=O)Nc2nc(-c3nn(Cc4ccccc4F)c4ncc(F)cc34)nc(C(=O)NCC3CC3)c21 [Example 49]	33	0.1
Cc1nc2c(cc1F)c(-c1nc3c(c(C(N)=O)n1)C(C)(C)C(=O)N3)nn2Cc1ccccc1F [Example 5, 2-[5-Fluoro-1-(2-fluorobenzyl)-6-methyl-1H-pyrazolo[3,4-b]pyridin-3-yl]-5,5-dimethyl-6-oxo-6,7-dihydro-5H-pyrrolo[2,3-d]pyrimidine-4-carboxamide]	86	0.3
CC1(C)C(=O)Nc2nc(-c3nn(Cc4ccccc4F)c4ncccc34)nc(C(=O)NC3CCOCC3)c21 [Example 98, 2-[1-(2-fluorobenzyl)-1H-pyrazolo[3,4-b]pyridin-3-yl]-5,5-dimethyl-6-oxo-N-(tetrahydro-2H-pyran-4-yl)-6,7-dihydro-5H-pyrrolo[2,3-d]pyrimidine-4-carboxamide]	33	1
CCCCNC(=O)c1nc(-c2nn(Cc3ccccc3F)c3ncccc23)nc2c1C(C)(C)C(=O)N2 [Example 121, N-butyl-2-[1-(2-fluorobenzyl)-1H-pyrazolo[3,4-b]pyridin-3-yl]-5,5-dimethyl-6-oxo-6,7-dihydro-5H-pyrrolo[2,3-d]pyrimidine-4-carboxamide]	27	0.3
Cc1nc2c(cc1F)c(-c1nc3c(c(C(N)=O)n1)C(C)(C)C(=O)N3)nn2Cc1ncccc1F [Example 7, 2-{5-Fluoro-1-[(3-fluoropyridin-2-yl)methyl]-6-methyl-1H-pyrazolo[3,4-b]pyridin-3-yl}-5,5-dimethyl-6-oxo-6,7-dihydro-5H-pyrrolo[2,3-d]pyrimidine-4-carboxamide]	130	3
CONC(=O)c1nc(-c2nn(Cc3ccccc3F)c3ncccc23)nc2c1C(C)(C)C(=O)N2 [Example 79, 2-[1-(2-fluorobenzyl)-1H-pyrazolo[3,4-b]pyridin-3-yl]-N-methoxy-5,5-dimethyl-6-oxo-6,7-dihydro-5H-pyrrolo[2,3-d]pyrimidine-4-carboxamide]	30	0.1
Cc1nc2c(cc1F)c(-c1nc3c(c(C(N)=O)n1)C(C)(C(F)(F)F)C(=O)N3)nn2Cc1c(F)ccc(F)c1F (single isomer, unassigned; ent-2) [Example 17, ent-2-[5-Fluoro-6-methyl-1-(2,3,6-trifluorobenzyl)-1H-pyrazolo[3,4-b]pyridin-3-yl]-5-methyl-6-oxo-5-(trifluoromethyl)-6,7-dihydro-5H-pyrrolo[2,3-d]pyrimidine-4-carboxamide (enantiomer B)]	280	0.03

Molecules with a lower IC50 [1], results first:

IC50 [1] [nM]	MEC [2] [µM]	Compound
14	0.3	CC1(C)C(=O)Nc2nc(-c3nn(Cc4ccccc4F)c4cc(Cl)ccc34)nc(C(=O)NC3CC3)c21 [Example 43]
24	0.3	CC1(C)C(=O)Nc2nc(-c3nn(Cc4ccccc4F)c4ncccc34)nc(C(=O)Nc3cc[nH]n3)c21 [Example 87, 2-[1-(2-fluorobenzyl)-1H-pyrazolo[3,4-b]pyridin-3-yl]-5,5-dimethyl-6-oxo-N-(1H-pyrazol-3-yl)-6,7-dihydro-5H-pyrrolo[2,3-d]pyrimidine-4-carboxamide]
6.8	1	CC1(C)C(=O)Nc2nc(-c3nn(Cc4ccccc4F)c4ncccc34)nc(C(=O)NC3CCOC3)c21 (racemic) [Example 65, rac-2-[1-(2-fluorobenzyl)-1H-pyrazolo[3,4-b]pyridin-3-yl]-5,5-dimethyl-6-oxo-N-(tetrahydrofuran-3-yl)-6,7-dihydro-5H-pyrrolo[2,3-d]pyrimidine-4-carboxamide]
3.5	0.1	CC1(C)C(=O)Nc2nc(-c3nn(Cc4ccccc4F)c4ncccc34)nc(C(=O)NC3CC3)c21 [Example 24, N-Cyclopropyl-2-[1-(2-fluorobenzyl)-1H-pyrazolo[3,4-b]pyridin-3-yl]-5,5-dimethyl-6-oxo-6,7-dihydro-5H-pyrrolo[2,3-d]pyrimidine-4-carboxamide]
16	0.1	COCCNC(=O)c1nc(-c2nn(Cc3ccccc3F)c3ncccc23)nc2c1C(C)(C)C(=O)N2 [Example 127, 2-[1-(2-fluorobenzyl)-1H-pyrazolo[3,4-b]pyridin-3-yl]-N-(2-methoxyethyl)-5,5-dimethyl-6-oxo-6,7-dihydro-5H-pyrrolo[2,3-d]pyrimidine-4-carboxamide]
13	0.1	CC1(C)C(=O)Nc2nc(-c3nn(Cc4ccccc4F)c4ncccc34)nc(C(=O)NCCF)c21 [Example 83, 2-[1-(2-fluorobenzyl)-1H-pyrazolo[3,4-b]pyridin-3-yl]-N-(2-fluoroethyl)-5,5-dimethyl-6-oxo-6,7-dihydro-5H-pyrrolo[2,3-d]pyrimidine-4-carboxamide]
9	0.3	CC1(C)C(=O)Nc2nc(-c3nn(Cc4ccccc4F)c4ncccc34)nc(C(=O)Nc3cccnc3)c21 [Example 89, 2-[1-(2-fluorobenzyl)-1H-pyrazolo[3,4-b]pyridin-3-yl]-5,5-dimethyl-6-oxo-N-(pyridin-3-yl)-6,7-dihydro-5H-pyrrolo[2,3-d]pyrimidine-4-carboxamide]
